Results: patent US11566007B2, “Ras inhibitors” (Revolution Medicines, Inc., priority 2019, dated 2023)
“And” between values parts separate entries of the source, which are not always exact repeats. Equal entries are not always repeated. Where two headings read alike, the source gives them in different places.

Columns and labels:
KRAS WT = KRAS WT (Homo sapiens (Human), UniProt P01116+P62937); experiment: Ras-Raf (BRAF RBD) disruption / FRET / MOA assay, KRAS WT; format: biochemical; conditions: read-out: IC50* KRAS WT FRET data
KRAS WT, sequence (P01116-2 other isoform, or with tags, fused parts or gaps): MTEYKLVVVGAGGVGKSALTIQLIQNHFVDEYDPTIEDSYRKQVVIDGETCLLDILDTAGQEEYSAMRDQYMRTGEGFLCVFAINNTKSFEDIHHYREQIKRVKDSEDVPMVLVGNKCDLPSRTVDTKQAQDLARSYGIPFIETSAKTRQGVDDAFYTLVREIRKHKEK
KRAS WT, sequence (P62937 whole entry): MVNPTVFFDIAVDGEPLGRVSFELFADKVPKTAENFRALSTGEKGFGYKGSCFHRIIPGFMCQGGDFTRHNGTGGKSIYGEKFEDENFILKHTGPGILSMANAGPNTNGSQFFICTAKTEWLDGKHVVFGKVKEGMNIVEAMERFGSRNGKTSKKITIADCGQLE
Outline: (§1)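 Compounds, top final concentration 30 μM in 10-point 3-fold series, incubated 3 hours at 25° C with nucleotide-loaded Ras, cyclophilin A and BRAF RBD.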

KRAS G13D = KRAS G13D (Homo sapiens (Human), UniProt P01116+P62937, G13D); experiment: Ras-Raf (BRAF RBD) disruption / FRET / MOA assay, KRAS G13D; format: biochemical; conditions: read-out: IC50* KRAS G13D FRET data
KRAS G13D, sequence (P01116-2 other isoform, or with tags, fused parts or gaps G13D): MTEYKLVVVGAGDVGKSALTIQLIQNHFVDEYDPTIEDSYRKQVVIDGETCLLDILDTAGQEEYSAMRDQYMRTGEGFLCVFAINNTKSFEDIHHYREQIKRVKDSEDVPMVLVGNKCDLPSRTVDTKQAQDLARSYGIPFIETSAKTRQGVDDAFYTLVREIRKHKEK
KRAS G13D, sequence (P62937 whole entry): as the sequence (P62937 whole entry) above
Outline: as §1

KRAS Q61H = KRAS Q61H (Homo sapiens (Human), UniProt P01116+P62937, Q61H); experiment: Ras-Raf (BRAF RBD) disruption / FRET / MOA assay, KRAS Q61H; format: biochemical; conditions: Ras-Raf disruption/FRET/MOA assay; class symbols; read-out: KRAS Q61H FRET data IC50
KRAS Q61H, sequence (P01116-2 other isoform, or with tags, fused parts or gaps Q61H): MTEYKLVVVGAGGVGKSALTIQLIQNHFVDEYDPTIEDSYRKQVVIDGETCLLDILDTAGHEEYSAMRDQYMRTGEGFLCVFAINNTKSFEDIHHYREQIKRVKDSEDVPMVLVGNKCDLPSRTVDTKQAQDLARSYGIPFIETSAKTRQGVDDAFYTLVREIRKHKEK
KRAS Q61H, sequence (P62937 whole entry): as the sequence (P62937 whole entry) above
Outline: (§2)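 TR-FRET disruption of nucleotide-loaded Ras binding to BRAF RBD via compound-driven ternary complex with cyclophilin A. Compound as 10-point 3-fold series from 30 μM final, 3 h at 25° C, then anti-His Eu-W1024 (10 nM) and anti-GST allophycocyanin (50 nM) for 1.5 h. IC50 from decreased FRET ratio versus DMSO.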

KRAS G12V = KRAS G12V (Homo sapiens (Human), UniProt P01116+P62937, G12V); experiment: Ras-Raf (BRAF RBD) disruption / FRET / MOA assay, KRAS G12V; format: biochemical; conditions: read-out: IC50* KRAS G12V FRET data
KRAS G12V, sequence (P01116-2 other isoform, or with tags, fused parts or gaps G12V): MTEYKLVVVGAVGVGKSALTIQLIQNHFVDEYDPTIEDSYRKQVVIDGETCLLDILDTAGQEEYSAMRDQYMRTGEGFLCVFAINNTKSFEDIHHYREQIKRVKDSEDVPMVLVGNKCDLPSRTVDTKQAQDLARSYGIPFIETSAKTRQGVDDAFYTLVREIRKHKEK
KRAS G12V, sequence (P62937 whole entry): as the sequence (P62937 whole entry) above
Outline: as §1

NRAS G12C = NRAS G12C (Homo sapiens (Human), UniProt P01111+P62937, G12C); experiment: Ras-Raf (BRAF RBD) disruption / FRET / MOA assay, NRAS G12C; format: biochemical; conditions: read-out: IC50* NRAS G12C FRET data
NRAS G12C, sequence (P01111 whole entry G12C): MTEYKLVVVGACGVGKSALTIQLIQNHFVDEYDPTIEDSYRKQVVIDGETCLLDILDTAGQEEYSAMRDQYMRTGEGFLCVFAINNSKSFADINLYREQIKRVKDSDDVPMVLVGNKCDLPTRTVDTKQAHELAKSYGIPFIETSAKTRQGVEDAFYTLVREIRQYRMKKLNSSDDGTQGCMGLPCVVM
NRAS G12C, sequence (P62937 whole entry): as the sequence (P62937 whole entry) above
Outline: as §1

NRAS Q61K = NRAS Q61K (Homo sapiens (Human), UniProt P01111+P62937, Q61K); experiment: Ras-Raf (BRAF RBD) disruption / FRET / MOA assay, NRAS Q61K; format: biochemical; conditions: NRAS Q61K; Ras-Raf disruption/FRET/MOA assay; read-out: IC50* NRAS Q61K FRET data
NRAS Q61K, sequence (P01111 whole entry Q61K): as the sequence (P01111 whole entry G12C) above, with C12G, Q61K counted along it
NRAS Q61K, sequence (P62937 whole entry): as the sequence (P62937 whole entry) above
Outline: as §2

NRAS Q61R = NRAS Q61R (Homo sapiens (Human), UniProt P01111+P62937, Q61R); experiment: Ras-Raf (BRAF RBD) disruption / FRET / MOA assay, NRAS Q61R; format: biochemical; conditions: NRAS Q61R; Ras-Raf disruption/FRET/MOA assay; read-out: IC50* NRAS Q61R FRET data
NRAS Q61R, sequence (P01111 whole entry Q61R): as the sequence (P01111 whole entry G12C) above, with C12G, Q61R counted along it
NRAS Q61R, sequence (P62937 whole entry): as the sequence (P62937 whole entry) above
Outline: as §2

NRAS WT = NRAS WT (Homo sapiens (Human), UniProt P01111+P62937); experiment: Ras-Raf (BRAF RBD) disruption / FRET / MOA assay, NRAS WT; format: biochemical; conditions: read-out: IC50* NRAS WT FRET data
NRAS WT, sequence (P01111 whole entry): as the sequence (P01111 whole entry G12C) above, with C12G counted along it
NRAS WT, sequence (P62937 whole entry): as the sequence (P62937 whole entry) above
Outline: as §2

KRAS G12S = KRAS G12S (Homo sapiens (Human), UniProt P01116+P62937, G12S); experiment: Ras-Raf (BRAF RBD) disruption / FRET / MOA assay, KRAS G12S; format: biochemical; conditions: Ras-Raf disruption/FRET/MOA assay; class symbols; read-out: KRAS G12S FRET data IC50
KRAS G12S, sequence (P01116-2 other isoform, or with tags, fused parts or gaps G12S): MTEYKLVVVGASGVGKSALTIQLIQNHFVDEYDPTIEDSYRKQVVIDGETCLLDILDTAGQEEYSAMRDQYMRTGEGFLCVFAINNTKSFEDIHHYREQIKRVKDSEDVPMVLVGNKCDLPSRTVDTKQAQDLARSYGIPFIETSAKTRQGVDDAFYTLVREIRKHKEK
KRAS G12S, sequence (P62937 whole entry): as the sequence (P62937 whole entry) above
Outline: as §1

KRAS G12D = KRAS G12D (Homo sapiens (Human), UniProt P01116+P62937, G12D); experiment: Ras-Raf (BRAF RBD) disruption / FRET / MOA assay, KRAS G12D; format: biochemical; conditions: Ras-Raf disruption/FRET/MOA assay; class symbols; read-out: KRAS G12D FRET data IC50
KRAS G12D, sequence (P01116-2 other isoform, or with tags, fused parts or gaps G12D): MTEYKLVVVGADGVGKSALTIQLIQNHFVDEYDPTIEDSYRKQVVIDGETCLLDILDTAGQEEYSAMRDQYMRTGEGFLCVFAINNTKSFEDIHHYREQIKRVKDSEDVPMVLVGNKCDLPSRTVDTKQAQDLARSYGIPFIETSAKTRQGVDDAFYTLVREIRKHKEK
KRAS G12D, sequence (P62937 whole entry): as the sequence (P62937 whole entry) above
Outline: as §1

[1] = system: NCI-H358 cells (K-Ras G12C); experiment: Potency assay: pERK in NCI-H358 cells; format: cell-based, human; conditions: Homo sapiens
Outline: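 Inhibition of cellular pERK after a 4 h treatment, detected by AlphaLISA or In-Cell Western. IC50 from a four-parameter concentration-response fit.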

K-Ras G13C = K-Ras G13C (Homo sapiens (Human), UniProt P01116+P62937, G13C); experiment: Ras-Raf (BRAF RBD) disruption / FRET / MOA assay, KRAS G13C; format: biochemical; conditions: KRAS G13C; Ras-Raf disruption/FRET/MOA assay; read-out: IC50* KRAS G13C FRET data
K-Ras G13C, sequence (P01116-2 other isoform, or with tags, fused parts or gaps G13C): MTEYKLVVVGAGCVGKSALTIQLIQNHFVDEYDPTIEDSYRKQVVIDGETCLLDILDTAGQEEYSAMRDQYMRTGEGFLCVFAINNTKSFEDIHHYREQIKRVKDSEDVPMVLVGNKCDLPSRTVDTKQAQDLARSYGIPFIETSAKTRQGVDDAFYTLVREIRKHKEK
K-Ras G13C, sequence (P62937 whole entry): as the sequence (P62937 whole entry) above
Outline: as §1

K-Ras G12C = K-Ras G12C (Homo sapiens (Human), UniProt P01116+P62937, G12C); experiment: Ras-Raf (BRAF RBD) disruption / FRET / MOA assay, KRAS G12C; format: biochemical; conditions: KRAS G12C; Ras-Raf disruption/FRET/MOA assay; read-out: IC50* KRAS G12C FRET data
K-Ras G12C, sequence (P01116-2 other isoform, or with tags, fused parts or gaps G12C): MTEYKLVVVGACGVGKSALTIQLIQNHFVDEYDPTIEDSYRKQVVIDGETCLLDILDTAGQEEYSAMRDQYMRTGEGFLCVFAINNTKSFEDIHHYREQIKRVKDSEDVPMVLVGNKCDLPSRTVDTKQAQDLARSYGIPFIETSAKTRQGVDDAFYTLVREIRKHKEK
K-Ras G12C, sequence (P62937 whole entry): as the sequence (P62937 whole entry) above
Outline: as §1

[2] = NCI-H358, H358 KRAS G12C, read-out: pERK EC50

Compound | IC50 (KRAS WT) | IC50 (KRAS G13D) | IC50 (KRAS Q61H) [µM] | IC50 (KRAS G12V) | IC50 (NRAS G12C) | IC50 (NRAS Q61K) [µM] | IC50 (NRAS Q61R) [µM] | IC50 (NRAS WT) [µM] | IC50 (KRAS G12S) | IC50 (KRAS G12D) | EC50 ([1]; NCI-H358, read-out: pERK EC50) [µM] | IC50 (K-Ras G13C) | IC50 (K-Ras G12C) | EC50 [1, 2] [µM]
CCn1c(-c2cccnc2[C@H](C)OC)c2c3cc(ccc31)-c1cccc(c1)C[C@H](NC(=O)[C@H](C(C)C)N1CC[C@]3(CCN(C(=O)C#C[C@H]4COCCN4C)C3)C1=O)C(=O)N1CCC[C@H](N1)C(=O)OCC(C)(C)C2 (atropisomer, axis not shown) [Example A592] | > 10 µM | > 10 µM | 1 to 10 | 1 to 10 µM | 0.01 to 0.1 µM | > 10 | > 10 | > 10 | 1 to 10 µM | > 10 µM | < 5 | 1 to 10 µM | 0.01 to 0.1 µM | –
C=CC(=O)N1CCO[C@H]2CCN(C(=O)N(C)[C@H](C(=O)N[C@H]3Cc4nc(cs4)-c4ccc5c(c4)c(c(-c4cccnc4[C@H](C)OC)n5CC)CC(C)(C)COC(=O)[C@@H]4CCCN(N4)C3=O)C(C)C)C[C@@H]21 (atropisomer, axis not shown) [Example A609] | 0.01 to 0.1 µM | 0.1 to 1 µM | 0.01 to 0.1 | 0.01 to 0.1 µM | < 0.01 µM | 0.01 to 0.1 | 0.01 to 0.1 | 0.01 to 0.1 | 0.01 to 0.1 µM | 0.1 to 1 µM | – | 0.01 to 0.1 µM | < 0.01 µM | < 5
CCn1c(-c2cccnc2[C@H](C)OC)c2c3cc(ccc31)N1CCO[C@@H](C[C@H](NC(=O)[C@H](C(C)C)N3CC[C@@]4(CCN(C(=O)C#CC(C)(C)N(C)C)C4)C3=O)C(=O)N3CCC[C@H](N3)C(=O)OCC(C)(C)C2)C1 (atropisomer, axis not shown) [Example A614] | > 10 µM | > 10 µM | > 10 | > 10 µM | 0.01 to 0.1 µM | > 10 | > 10 | > 10 | > 10 µM | > 10 µM | – | 1 to 10 µM | 0.01 to 0.1 µM | < 5
CCn1c(-c2cccnc2[C@H](C)OC)c2c3cc(ccc31)-c1cccc(c1)C[C@H](NC(=O)[C@H](C(C)C)N(C)C(=O)C1(F)CCN(C(=O)C#CC(C)(C)N(C)C)CC1)C(=O)N1CCC[C@H](N1)C(=O)OCC(C)(C)C2 (atropisomer, axis not shown) [Example A699] | 0.1 to 1 µM | 0.1 to 1 µM | 0.1 to 1 | 0.1 to 1 µM | < 0.01 µM | 0.1 to 1 | 0.1 to 1 | 0.1 to 1 | 0.1 to 1 µM | 1 to 10 µM | – | 0.01 to 0.1 µM | < 0.01 µM | < 5
C=CC(=O)N1CC[C@H](C(=O)N(C)[C@H](C(=O)N[C@H]2Cc3cccc(c3)-c3ccc4c(c3)c(c(-c3cc(N5CCN(C)CC5)cnc3[C@H](C)OC)n4CC)CC(C)(C)COC(=O)[C@@H]3CCCN(N3)C2=O)C(C)C)C1 (single isomer, unassigned) [Example A328] | 1 to 10 µM and > 10 µM | 1 to 10 µM and > 10 µM | 0.1 to 1 | 1 to 10 µM and > 10 µM | 0.01 to 0.1 µM and 1 to 10 µM | 1 to 10 | 1 to 10 | 1 to 10 | 0.1 to 1 µM and > 10 µM | 1 to 10 µM and > 10 µM | – | 0.1 to 1 µM and > 10 µM | 0.01 to 0.1 µM and 1 to 10 µM | < 5
C=CC(=O)C1C[C@@H](C(=O)N(C)[C@H](C(=O)N[C@H]2Cc3cc(O)cc(c3)-c3ccc4c(n3)c(c(-c3ccccc3CCOC)n4CC)CC(C)(C)COC(=O)[C@@H]3CCCN(N3)C2=O)C(C)C)CN1 (some centres unmarked) [Example A211] | > 10 µM | > 10 µM | 1 to 10 | 1 µM to 10 µM and > 10 µM (3×) | 100 nM to 1 µM and 1 µM to 10 µM and > 10 µM (2×) | 1 to 10 | > 10 | 1 to 10 | 1 µM to 10 µM and > 10 µM (3×) | > 10 µM | – | > 10 µM | 100 nM to 1 µM and 1 µM to 10 µM and > 10 µM (2×) | < 5
C=CC(=O)N1CC[C@H](C(=O)N(C)[C@H](C(=O)N[C@H]2Cc3nc(cs3)-c3ccc4c(n3)c(c(-c3cccnc3[C@H](C)OC)n4CC)CC(C)(C)COC(=O)[C@@H]3CCCN(N3)C2=O)C(C)C)C1 [Example A347, (2S)-N-[(7S,13S)-21-ethyl-20-{2-[(1S)-1-methoxyethyl]pyridin-3-yl}-17,17-dimethyl-8,14-dioxo-15-oxa-4-thia-9,21,25,27,28-pentaazapentacyclo[17.5.2.1^{2,5}.1^{9,13}.0^{22,26}]octacosa-1(25),2,5(28),19,22(26),23-hexaen-7-yl]-3-methyl-2-{N-methyl-1-[(3S)-1-(prop-2-enoyl)pyrrolidin-3-yl]formamido}butanamide] | 1 to 10 µM | > 10 µM | 1 to 10 | > 10 µM | 0.1 to 1 µM | 1 to 10 | 1 to 10 | 1 to 10 | 1 to 10 µM | > 10 µM | – | 1 to 10 µM | 0.1 to 1 µM | < 5
C=CC(=O)N1CCO[C@@H]2CCN(C(=O)N(C)[C@H](C(=O)N[C@H]3Cc4nc(cs4)-c4ccc5c(c4)c(c(-c4cccnc4[C@H](C)OC)n5CC)CC(C)(C)COC(=O)[C@@H]4CCCN(N4)C3=O)C(C)C)CC21 (some centres unmarked) [Example A596] | > 10 µM | 0.1 to 1 µM | 0.01 to 0.1 | 0.1 to 1 µM | 0.01 to 0.1 µM | 0.01 to 0.1 | 0.01 to 0.1 | 0.01 to 0.1 | 0.01 to 0.1 µM | 0.1 to 1 µM | – | 0.1 to 1 µM | 0.01 to 0.1 µM | < 5
